Test results reported in patent US10512673B2, “Use of peptide-based inhibitors of the stat3-IL10 pathway for treating bacterial infection and granulomatous disease” (The United States of America, as Represented by the …, priority 2015, dated 2019).
“Also recorded” adds a separate entry of the source. Where no end group is shown, it is not given here. [ ]: non-standard residue; d: D form. The star is where a group is joined. Palmitoyl = CCCCCCCCCCCCCCCC(=O)*

Tests used:
IL-12p40 = experiment: Cytometric bead array for IL-12p40 in lung homogenates; type: in vivo, C57BL/6 mice; conditions: CBA, 100 μg/dose, vs control mice
arg1 [1] = experiment: RT-PCR of arg1 transcript in lungs; type: in vivo, C57BL/6 mice
atg5 = experiment: qRT-PCR of atg5 transcript in lungs; type: in vivo, C57BL/6 mice; conditions: 100 μg/dose
Method: (§1) The upper right lobe of the lungs from each mouse were homogenized in Trizol (Invitrogen) using Next Advance bullet blender (Averill Park, N.Y.) and frozen at −80° C. immediately. RNA was extracted following the manufacturer's protocol. Trizol DNA was digested with RQ1 RNase-free DNase (Promega, Madison, Wis.) and RNA was re-isolated using Trizol. Finally, the concentration of RNA in each sample was measured by spectrophotometry and the RNA was reverse transcribed with M-Mulv (New England Bio Labs, Ipswich, Mass.) and random hexamers (Roche, Basel, Switzerland).
(§2) When lung homogenates from each mouse were used to determine the levels of expression of Bcl-2 and Atg-5 protein using ELISA, the results were similar to those obtained by qRT-PCR.

Il-10 [2] = experiment: Cytometric bead array for IL-10 in lung homogenates; design: species or system C57BL/6 mice; conditions: mouse, in vivo
Il-10 [3] = test system: Il-10; design: species or system C57BL/6 mice; conditions: mouse, in vivo
IFNγ = experiment: Cytometric bead array for IFNγ in lung homogenates; type: in vivo, C57BL/6 mice; conditions: CBA, 100 μg/dose, vs control mice
pSTAT3 (pY705) = experiment: ELISA for pSTAT3 in lung homogenates; type: in vivo, C57BL/6 mice; conditions: after two weeks of treatment (100 μg/dose), vs untreated infected mice
Method: Lung homogenates were screened for pSTAT3 (pY705 (tyrosine 705)) by ELISA following manufacturer's recommendations (Life Technologies). Briefly, the lung homogenates were re-suspended in the cell extraction buffer and incubated during 30 minutes on ice with intermittent vortexing followed by pelleting of the cell debris. Supernatants from each sample were collected and screened for their content of STAT3 (pY705). Standards were prepared using purified recombinant phosphorylated STAT3 protein. Thereafter, 100 μl of standards and diluted samples or control aliquots were distributed into microtiter wells and were incubated in the wells pre-coated with anti-pSTAT3 antibody. The reactions were developed using the detection anti-pSTAT3 antibody followed by 30 minutes incubation at RT with anti-rabbit IgG HRP. The reactions were visualized by incubation with a chromogenic substrate of HRP during 30 minutes at room temperature. The reactions were stopped with 100 μl of stop solution added to each well. Absorbance for each well was read at 450 nm.

TNFα = experiment: Cytometric bead array for TNFα in lung homogenates; type: in vivo, C57BL/6 mice; conditions: CBA, 100 μg/dose, vs control mice
stat3 = test system: stat3; design: species or system C57BL/6 mice; conditions: mouse, in vivo
[4] = test system: Mycobacterium tuberculosis (Erdman strain); conditions: in vivo
bcl-2 = experiment: qRT-PCR of bcl-2 transcript in lungs; type: in vivo, C57BL/6 mice; conditions: 100 μg/dose
Method: as §1, §2

bax = experiment: qRT-PCR of bax transcript in lungs; type: in vivo, C57BL/6 mice; conditions: 100 μg/dose
Method: as §1, §2

nos2 [5] = experiment: RT-PCR of nos2 transcript in lungs; type: in vivo, C57BL/6 mice
arg1 [6] = experiment: Arginase activity in lung homogenates; type: in vivo, C57BL/6 mice; conditions: 100 μg/dose, vs untreated infected mice
Method: (§3) The quantification of end effector molecules and enzymes involved in the host antimicrobial activity in the lungs of mice were performed using lung homogenates obtained as indicated above. Lung homogenate supernatants were used in a Griess reaction (G 7921, Molecular probes, Invitrogen, Eugene, Oreg.), Arginase assay (Bioassay Systems, DARG-200), NADPH (Bioassay Systems, ECNP-100), and lysozyme (Molecular Probes E-22013).
The level of arginase activity in each lung homogenate was performed using the Quanti-Chrom Arginase Assay Kit (Bio Assay Systems, Hayward, Calif.). Briefly, protein concentration was normalized to 100 μg/ml. As a control, an aliquot of normalized protein was heat-inactivated at 90° C. for 10 min. 40 μl of untreated or heat-inactivated sample was incubated at 37° C. for 60 min with 10 μl of 5× reagent. Thereafter, the reaction was processed as recommended by the manufacturer and analyzed in a plate reader (Bio-Rad, Hercules, Calif.) at an absorbance of 430 nm. The absorbance of the heat-inactivated sample was subtracted from the respective untreated sample and then compared to urea standards. Activity of the arginase was reported in mU/mg of protein.

nos2 [7] = experiment: NOS2 activity in lung homogenates (Griess reaction); type: in vivo, C57BL/6 mice; conditions: 100 μg/dose, vs untreated infected mice
Method: as §3
For the Griess reaction, reagents were acclimated at room temperature for 20 min prior to the assay. Thereafter, the samples were centrifuged at 1200 rpm for 2 min and the Griess reaction was performed following the manufacturer's instructions. Briefly, samples and prepared standards were diluted following the manufacturer's instructions with distilled sterile water in a 96 well plate. 20 μl of Griess reaction were added to each reaction well. Samples and standards were incubated for 30 minutes in the dark. Thereafter, samples were read using a Biotech Synergy 2 Multi-Mode Micro Plate Reader [U5] spectrophotometer at 546 nm.

beclin-1 = experiment: qRT-PCR of beclin-1 transcript in lungs; type: in vivo, C57BL/6 mice; conditions: 100 μg/dose
Method: as §1, §2

lysozyme = experiment: Lysozyme assay in lung homogenates; type: in vivo, C57BL/6 mice; conditions: 100 μg/dose, vs untreated infected mice
Method: as §3
The Lysozyme assay was performed as per manufacturer's instructions. Briefly, experimental samples were first diluted in 1× reaction buffer. A volume of 50 μl was used for each reaction. Then, 50 μl of the 50 μg/ml DQ lysozyme substrate were added to each microplate well containing the experimental or the standard curve samples. The reaction mix was then incubated at 37° C. for 30 min protected from light. The fluorescence in each of the samples was measured at absorption maxima at ˜494 nm and fluorescence emission maxima at ˜518 nm.

NADPH = NADPH assay in lung homogenates; type: in vivo, C57BL/6 mice; conditions: 100 μg/dose, vs untreated infected mice
Method: as §3
For the NADPH assay, each lung homogenate was mixed in a 1.5 mL Eppendorf tube with 100 μL NADPH extraction buffer for NADPH determination. Extracts then were heated at 60° C. for 5 min and then 20 μl assay buffer and 100 μl of the opposite extraction buffer were added to neutralize the extracts. Samples were briefly vortexed and centrifuged at 13,000 rpm for 5 min. The resulting supernatant was used for NADPH assays. 40 μl of standards were then transferred into wells of a clear bottom 96-well plate. For each well of the reaction, 80 μL working reagent were added per well quickly. Optical density for time “zero” (OD0) optical density after 30 min incubation (OD30) at room temperature were read at 565 nm (520-600 nm).

pSTAT3 = experiment: Immunohistochemistry for pSTAT3 in lung tissue sections; design: species or system C57BL/6 mice; conditions: mouse, in vivo
[8] = test system: granuloma lesions in the lungs; experiment: Lung histopathology (H&E); design: species or system C57BL/6 mice; conditions: mouse, in vivo
IL-6 = experiment: Cytometric bead array for IL-6 in lung homogenates; type: in vivo, C57BL/6 mice; conditions: CBA, 100 μg/dose, vs control mice
[9] = RT-PCR, lungs, 100 μg/dose, vs control mice

Substance	expression level of IL-12p40 in the lungs (IL-12p40)	expression of atg5 transcript (in words) (atg5)	level of IL-10 in lung homogenates (Il-10 [2])	pulmonary expression of il-10 transcript (Il-10 [3])	level of IFNγ expression in the lungs (IFNγ)	level of pSTAT3 in lung homogenates (pSTAT3 (pY705))	level of TNFα in the lungs (TNFα)	pulmonary expression of stat3 transcript (stat3)	change of pulmonary CFU (in words) [4]	expression of bcl-2 transcript (in words) (bcl-2)	expression of bax transcript (in words) (bax)	Arg1 activity (arg1 [6])	NOS2 activity (concentration of NO) (nos2 [7])	expression of beclin-1 transcript (in words) (beclin-1)	lysozyme activity (DQ substrate) (lysozyme)	NADPH activity (pyridine nucleotide) (NADPH)	further results
Ac-EETQLSPKTSGFGSDTSGHLK-E-Pal (Ac-[dE][dE][dT][dQ][dL][dS][dP][dK][dT][dS]G[dF]G[dS][dD][dT][dS]G[dH][dL][dK](Palmitoyl); not fully specified; also: name K-E-Pal / C-terminal Glu-palmitoyl: Glu between Lys and palmitoyl?) [IL10R1-14]	down	increased expression	no significant changes	no significant changes	increased and up	no significant changes	reduced	no significant changes	slight increase; also recorded: only the group of mice receiving the peptide inhibitor ST3-H2A2 had reduced the pulmonary CFU	reduced expression	reduced expression	increased	lower or no increase	reduced expression	lower or no increase	lower or no increase	increase in arg1 transcript expression (arg1 [1]; [9]): 10 fold; increase in nos2 transcript expression (nos2 [5]; [9]): 2 fold
ε-Pal-KLVTLPLISSLQSSE-NH2 (K(Palmitoyl)LVTLPLISSLQSSE-NH2; N-terminus assumed; SMILES CCCCCCCCCCCCCCCC(=O)NCCCC[C@H](N)C(=O)N[C@@H](CC(C)C)C(=O)N[C@H](C(=O)N[C@H](C(=O)N[C@@H](CC(C)C)C(=O)N1CCC[C@H]1C(=O)N[C@@H](CC(C)C)C(=O)N[C@H](C(=O)N[C@@H](CO)C(=O)N[C@@H](CO)C(=O)N[C@@H](CC(C)C)C(=O)N[C@@H](CCC(N)=O)C(=O)N[C@@H](CO)C(=O)N[C@@H](CO)C(=O)N[C@@H](CCC(=O)O)C(N)=O)[C@@H](C)CC)[C@@H](C)O)C(C)C) [IL10R1-7]	decreased and up	increased expression	lower levels	lower levels	decreased and down	lower levels	reduced and down	lower levels	only the group of mice receiving the peptide inhibitor ST3-H2A2 had reduced the pulmonary CFU	reduced expression	reduced expression	reduced or not changed	significantly elevated	reduced expression	significantly elevated	significantly elevated	mRNA arg1 expression (in words) (arg1 [1]; mouse, in vivo): reduction; pSTAT3 staining by IHC in lung tissue sections (pSTAT3): reduced levels of pSTAT3 staining in the center of the granuloma lesions; histopathology of H&E stained lung sections [8]: increased numbers of clusters and highly packed lymphocytes; reduction of pulmonary bacterial load [4]: 0.6; expression level of IL-6 in the lungs (IL-6): decreased; mRNA nos2 expression (in words) (nos2 [5]; mouse, in vivo): reduction in transcript expression for nos2 and arg1 but not significantly for nos2
